# Laboratory results: article PMC12203428, “Discovery of Clonixeril as a Sub-Femtomolar Modulator of the Human STING Receptor” (ACS Central Science, 2025)
# B1: His-SUMO-TEV-hSTING CTD (domain or fragment, human, UniProt Q86WV6 155-343, looked up)
# chain: VAHGLAWSYYIGYLRLILPELQARIRTYNQHYNNLLRGAVSQRLYILLPLDCGVPDNLSMADPNIRFLDKLPQQTGDHAGIKDRVYSNSIYELLENGQRAGTCVLEYATPLQTLFAMSQYSQAGFSREDRLEQAKLFCRTLEDILADAPESQNNCRLIAYQEPADDSSFSLSQEVLRHLRQEEKEEVTV
# notes: human STING (stimulator of interferon genes), C-terminal domain, amino acids 155-343, wild type (R232) allele; a TEV site lies between SUMO and STING by the construct's name; Synthetic gene in pET28a; also called SUMO-hSTING CTD; SUMO-hSTING^WT CTD; source: E. coli BL21(DE3), purified (Ni-NTA); not shown: His6, N-terminal, kept; SUMO, N-terminal, kept
# What was measured:
# [1] = molecular target: T1, hSTING CTD (STING R232 variant) (Homo sapiens, UniProt Q86WV6, H232R); assay: Microscale thermophoresis; format: binding; details: for Activity in MST assay: competition with 2′,3′-cGAMP
# T1 construct: 6X-His tagged hSTING^WT, R232 variant, CTD protein was purchased; purchased Invivogen (USA) or Cayman Chemicals (USA)
# T1 sequence (Q86WV6 153-340 H232R): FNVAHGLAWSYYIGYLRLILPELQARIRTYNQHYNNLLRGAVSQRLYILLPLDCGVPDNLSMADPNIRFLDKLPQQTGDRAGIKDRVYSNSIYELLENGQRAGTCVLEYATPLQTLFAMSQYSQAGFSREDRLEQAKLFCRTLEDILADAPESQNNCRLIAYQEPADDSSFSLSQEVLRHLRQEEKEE
# Experimental: Small molecule affinities at subpicomolar concentrations are typically difficult to determine by MST due to the inability of the detector to measure differential movement of proteins when largely disproportionate ratios of protein to ligand are involved. […] Generally, an IC50 correlates well with a K D when a small molecule competes for binding with a natural substrate for a target protein.
# The resulting mixture was centrifuged at 12,000 x RPM 10 min prior to use. […] The samples were run again at 30- and 45 min. Detection of the protein was performed using the blue detection channel with excitation power set to 100% and MST set to high allowing 3 s prior to MST on to check for initial fluorescence differences, 35 s for thermophoresis, and 3 s for regeneration after MST off. Analysis was performed using M.O. Affinity Analysis Software with difference between initial fluorescence measured in the first 5 s as compared with thermophoresis at 30 s at 16 different analyte concentrations ranging from 100 μM to 100 zM and exported into Graphpad Prism v.8 using a Log inhibitor versus response for parameter fit.
# [2] = system: p-IRF3 in HEK293S cells (hSTING pathway); assay: Phospho-IRF3 Western blot in HEK293S cells with diABZI3; format: cell-based, human; details: 100 fM compound, 100 nM diABZI3, preliminary
# Experimental: HEK293T cells transfected with hSTINGWT cells were seeded in a 6-well plate in DMEM
# (supplemented with 10% heat-inactivated fetal bovine serum, 1X Corning Penicillin-Streptomycin
# solution and 0.01mg/mL Blasticidin). Upon reaching ~80% confluence, cells were pretreated with
# varying concentrations of CXL in FBS-free DMEM for 2 hours. This was followed by treatment
# with diABZI3 (100nM) for 1 hour. The cells were scraped, harvested by centrifugation at 1000 x g
# for 3 mins. The resulting pellet is resuspended in 1X PBS with 1X Halt protease & phosphatase
# inhibitor and 1% NP-40. Cell lysis was performed by probe sonication. The cell lysate is further
# denatured in 1X SDS loading buffer by boiling for 10 mins and separated by SDS-PAGE (4-20%
# gel). The separated proteins were electrically transferred to a PVDF membranes separately,
# which was probed with primary (α-pIRF3, α-IRF3 & α-STING) and secondary (goat anti-rabbit IR
# dye 680 & goat anti-mouse IR dye 800CW) antibodies. The blots were visualized using a LICOR
# Image Analyzer. All the experiments were performed at least in duplicate.
# SUMO-hSTING CTD [3] = molecular target: T2, SUMO-hSTING CTD (Homo sapiens, UniProt Q86WV6, H232R); assay: Dynamic light scattering of STING oligomerization; details: 50 nM STING CTD; S-isomer up to 500 fM; reviewer's reading
# T2 sequence (Q86WV6 155-343 H232R): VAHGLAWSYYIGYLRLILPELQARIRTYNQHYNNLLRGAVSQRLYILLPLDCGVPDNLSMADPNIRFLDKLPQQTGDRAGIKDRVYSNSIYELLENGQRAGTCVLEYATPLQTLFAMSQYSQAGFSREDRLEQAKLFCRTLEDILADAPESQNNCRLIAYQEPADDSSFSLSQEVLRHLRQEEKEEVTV
# Experimental: (B) DLS was performed for 2 h (n = 960 measurements) with 50 nM STING exposed to analytes. […] Blue blocks indicate size counts as a percentage to overall mass over selected mass ranges. […] Measurements were made using a Malvern Zetasizer Nano ZS set to 40 measurements at 1 s/measurement and 24 runs.
# [4] = system: IFN-β expression in HEK293 cells; assay: HEK293 real-time qPCR for IFN-β; details: 4 μM 2′,3′-cGAMP 3 h, positive control
# Experimental: IFN-β expression levels were measured using real-time qPCR.
# HEK293 cells were seeded at 700,000 cells per 60 mm plate confluency and treated 36 h later.
# His-hSTING CTD = molecular target: T3, His-hSTING CTD (Homo sapiens, UniProt Q86WV6, H232R); assay: Surface plasmon resonance; format: binding; details: read-out: KD (SPR)
# T3 construct: purchased Invivogen (USA) or Cayman Chemicals (USA)
# T3 sequence (Q86WV6 153-340 H232R): as the sequence (Q86WV6 153-340 H232R) above
# Experimental: SPR was employed for binding measurements using the His-tagged hSTING^WT CDN domain. A GE Healthcare Biacore T200 was equipped with a Ni-NTA chip. […] The sensorgrams were analyzed using Biacore T200 Software 3.0 and steady state was measured at 4 s before injection stop, exported into Graphpad, and fit versus concentration using a one site specific binding model to calculate the apparent equilibrium dissociation constant (K D). Where appropriate, kinetics were measured using a 1:1 Langmuir binding model with R max set to local to obtain the association rate (K on), dissociation (K off)
# STING = system: STING; set-up: method as in Ergun et al.; details: ref Ergun et al., cited from earlier work
# STING CTD = molecular target: STING CTD; set-up: method as in not given; details: ref not given; read-out: KD previously reported (ITC); cited from earlier work
# SUMO-hSTING CTD [5] = molecular target: T2, SUMO-hSTING CTD; assay: Isothermal titration calorimetry; format: binding; set-up: human STING (amino acid 155–343) was synthesized and subcloned into pET28a vector; made in house; host or cells: E. coli BL21(DE3)
# Excerpt: In order to further explore the interaction between CXL and hSTING CTD, we employed Isothermal calorimetry (ITC) to measure the heat evolved accompanying CXL’s effect on SUMO-hSTING^WT CTD. […] In Figure A, we show the ITC data we obtained. […]. […] In Figure B, we also find that the binding isotherm is far from steady state or equilibrium, and thus, we could not obtain reliable thermodynamic parameters. Nonetheless, a significant amount of heat was released in the process of CXL interacting with the hSTING CTD. On the other hand, we were most interested in ITC measurements taken at femtomolar concentrations, given the biophysical experiments and in cellulo studies already described. Initial experiments treating the hSTING CTD with femtomolar concentrations of CXL were unsuccessful, likely due to the insensitivity of the instrument. […]. MicroCal ITC200 instrument (Malvern Pananalytical) was used to assess STING and CXL interactions. Both recombinantly purified STING domains (residues 155–343) containing a SUMO tag and CXL were buffer-exchanged and made in the same buffer composition, respectively, to avoid buffer mismatch. The same buffer cocktail was used in all ITC experiments, containing 25 mM HEPES (pH, 7.4), 150 mM NaCl, 5% glycerol, 0.5 mM TCEP, and 5% DMSO. STING protein from −80 °C aliquots was spun down at 12,000 RPM for 5–10 min before each run to remove any aggregates, diluted into the ITC buffer above (either as 40 μM STING alone or as 40 μM STING plus 20 μM 2,3-cGAMP), and loaded into the cell. CXL at various concentrations for different experiments was loaded into the syringe (Hamilton). For the control and reference, an ITC buffer devoid of CXL was used. ITC experiments were conducted at 25 °C using an initial 0.4 μL injection and 19 subsequent injections of 2 μL each at 150 s intervals. Heat of dilution (differential power) of the 19 injections resulting from the binding event was fitted into the nonlinear least-squares equation incorporated in the MicroCal ITC200 analysis software. The K D and other thermodynamic parameters were derived from curve fitting using MicroCal software.
# [6] = molecular target: the molecule itself; assay: dynamic light scattering; 50 nM STING with 50 nM 2′,3′-cGAMP and a titrated range of analyte (CXL, CXN, H-151), HBS-P pH 7.4, 2 h
# [7] = 500 μM c-diGMP to 40 μM hSTING CTD
molecule,measurement,setting,value
"Cc1c(Cl)cccc1Nc1ncccc1C(=O)OC[C@H](O)CO (single isomer, unassigned) [R-enantiomer, R-clonixeril]",Activity in MST assay,[1],subfemtomolar activity
same,Effect on p-IRF3,[2],agonistic
same,Effect of enantiomers on protein aggregate size,SUMO-hSTING CTD [3],slightly less potent
"Cc1c(Cl)cccc1Nc1ncccc1C(=O)OC[C@@H](O)CO (single isomer, unassigned) [S-enantiomer, S-clonixeril]",Activity in MST assay,[1],an effect at higher concentrations
same,Effect on p-IRF3,[2],no effect
same,Effect of enantiomers on protein aggregate size,SUMO-hSTING CTD [3],no effect
"Nc1nc2c(ncn2C2OC3COP(=O)(O)OC4C(COP(=O)(O)OC2C3O)OC(n2cnc3c(N)ncnc32)C4O)c(=O)[nH]1 (stereo not drawn) [2′,3′-cGAMP, cyclic guanosine-(2′→5′)-monophosphate-adenosine-(3′→5′)-monophosphate, reference compound]",Induction of IFN-β production,[4],7.4 fold
Cc1c(Cl)cccc1Nc1ncccc1C(=O)OCCCCOC(=O)c1cccnc1Nc1cccc(Cl)c1C [Compound 14],Activity in MST assay,[1],quite active
"Cc1cccc(Nc2ccccc2C(=O)OCC(O)CO)c1C (stereo not drawn) [MFE, mefenamic acid glycerol ester]","KD (Table S1, Thermophoresis)",[1]; +50 nM 23cGAMP,No shift
same,Activity in MST assay,[1],no indication of activity at any concentration below 1 μM
"Nc1nc2c(ncn2C2OC3COP(=O)(O)OC4C(COP(=O)(O)OC3C2O)OC(n2cnc3c(=O)[nH]c(N)nc32)C4O)c(=O)[nH]1 (stereo not drawn) [c-diGMP, cyclic di-GMP, reference compound]",Kd,His-hSTING CTD,4780 ± 1650 nM
same,Hill coefficient for STING activation,STING,2.6
same,IC50,"STING; read-out: IC50 for inhibition of the action of 2′,3′-cGAMP",~800 nM
same,Kd,STING CTD,3700 nM
same,ΔH0 (ITC),SUMO-hSTING CTD [5]; [7],-24.6 kcal/mol
same,ΔS0 (ITC),SUMO-hSTING CTD [5]; [7],−56.5 cal/mol/deg
same,Kd,SUMO-hSTING CTD [5]; read-out: KD (ITC),2170 nM
B1,binding result,[6],binds
